In brackets after ≈: the same amount, converted by molar mass.
Columns and labels:
[1] = system: BT-549; assay: Growth inhibition of human BT-549 cells at 10 uM relative to control; format: functional; conditions: read-out: GI
[2] = system: DU-145; assay: Growth inhibition of human DU-145 cells at 10 uM relative to control; format: functional; conditions: read-out: GI
[3] = system: SNB-75; assay: Growth inhibition of human SNB-75 cells at 10 uM relative to control; format: functional; conditions: read-out: GI
[4] = system: CCRF-CEM; assay: Growth inhibition of human CCRF-CEM cells at 10 uM relative to control; format: functional; conditions: read-out: GI
[5] = system: MDA-MB-231; assay: Growth inhibition of human MDA-MB-231 cells at 10 uM relative to control; format: functional; conditions: read-out: GI
[6] = system: MDA-MB-468; assay: Growth inhibition of human MDA-MB-468 cells at 10 uM relative to control; format: functional; conditions: read-out: GI
[7] = system: UACC-257; assay: Growth inhibition of human UACC-257 cells at 10 uM relative to control; format: functional; conditions: read-out: GI
[8] = system: U-251; assay: Growth inhibition of human U-251 cells at 10 uM relative to control; format: functional; conditions: read-out: GI
[9] = system: NCI-H322M; assay: Growth inhibition of human NCI-H322M cells at 10 uM relative to control; format: functional; conditions: read-out: GI
[10] = system: KM12; assay: Growth inhibition of human KM12 cells at 10 uM relative to control; format: functional; conditions: read-out: GI
[11] = system: OVCAR-8; assay: Growth inhibition of human OVCAR-8 cells at 10 uM relative to control; format: functional; conditions: read-out: GI
[12] = system: NCI/ADR-RES; assay: Growth inhibition of human NCI/ADR-RES cells at 10 uM relative to control; format: functional; conditions: read-out: GI
[13] = system: CAKI-1; assay: Growth inhibition of human CAKI-1 cells at 10 uM relative to control; format: functional; conditions: read-out: GI
[14] = system: UACC-62; assay: Growth inhibition of human UACC-62 cells at 10 uM relative to control; format: functional; conditions: read-out: GI
[15] = system: NCI-H460; assay: Growth inhibition of human NCI-H460 cells at 10 uM relative to control; format: functional; conditions: read-out: GI
[16] = system: K562; assay: Growth inhibition of human K562 cells at 10 uM relative to control; format: functional; conditions: read-out: GI
[17] = system: HOP-92; assay: Growth inhibition of human HOP-92 cells at 10 uM relative to control; format: functional; conditions: read-out: GI
[18] = system: ACHN; assay: Growth inhibition of human ACHN cells at 10 uM relative to control; format: functional; conditions: read-out: GI
[19] = system: T47D; assay: Growth inhibition of human T47D cells at 10 uM relative to control; format: functional; conditions: read-out: GI
[20] = system: SF-295; assay: Growth inhibition of human SF-295 cells at 10 uM relative to control; format: functional; conditions: read-out: GI
[21] = system: SNB-19; assay: Growth inhibition of human SNB-19 cells at 10 uM relative to control; format: functional; conditions: read-out: GI
[22] = system: HOP-62; assay: Growth inhibition of human HOP-62 cells at 10 uM relative to control; format: functional; conditions: read-out: GI
[23] = system: MDA-MB-435; assay: Growth inhibition of human MDA-MB-435 cells at 10 uM relative to control; format: functional; conditions: read-out: GI
[24] = system: SN12C; assay: Growth inhibition of human SN12C cells at 10 uM relative to control; format: functional; conditions: read-out: GI
[25] = system: SF-539; assay: Growth inhibition of human SF-539 cells at 10 uM relative to control; format: functional; conditions: read-out: GI
[26] = system: OVCAR-5; assay: Growth inhibition of human OVCAR-5 cells at 10 uM relative to control; format: functional; conditions: read-out: GI
[27] = system: M14; assay: Growth inhibition of human M14 cells at 10 uM relative to control; format: functional; conditions: read-out: GI
[28] = system: SK-OV-3; assay: Growth inhibition of human SK-OV-3 cells at 10 uM relative to control; format: functional; conditions: read-out: GI
[29] = system: SF-268; assay: Growth inhibition of human SF-268 cells at 10 uM relative to control; format: functional; conditions: read-out: GI
[30] = system: RPMI-8226; assay: Growth inhibition of human RPMI-8226 cells at 10 uM relative to control; format: functional; conditions: read-out: GI
[31] = system: SW-620; assay: Growth inhibition of human SW-620 cells at 10 uM relative to control; format: functional; conditions: read-out: GI
[32] = system: TK-10; assay: Growth inhibition of human TK-10 cells at 10 uM relative to control; format: functional; conditions: read-out: GI
[33] = system: HCC 2998; assay: Growth inhibition of human HCC 2998 cells at 10 uM relative to control; format: functional; conditions: read-out: GI
[34] = system: HT-29; assay: Growth inhibition of human HT-29 cells at 10 uM relative to control; format: functional; conditions: read-out: GI
[35] = molecular target: DNA; assay: Displacement of methyl green from DNA (unknown origin) assessed as DNA intercalation after 24 hrs by colorimetric assay; format: nucleic-acid assay
[36] = system: PC-3; assay: Growth inhibition of human PC-3 cells at 10 uM relative to control; format: functional; conditions: read-out: GI
[37] = system: IGROV-1; assay: Growth inhibition of human IGROV-1 cells at 10 uM relative to control; format: functional; conditions: read-out: GI
[38] = system: MCF7; assay: Growth inhibition of human MCF7 cells at 10 uM relative to control; format: functional; conditions: read-out: GI
[39] = system: UO-31; assay: Growth inhibition of human UO-31 cells at 10 uM relative to control; format: functional; conditions: read-out: GI
[40] = system: A549; assay: Growth inhibition of human A549 cells at 10 uM relative to control; format: functional; conditions: read-out: GI
[41] = system: HCT-15; assay: Growth inhibition of human HCT-15 cells at 10 uM relative to control; format: functional; conditions: read-out: GI
[42] = system: SK-MEL-5; assay: Growth inhibition of human SK-MEL-5 cells at 10 uM relative to control; format: functional; conditions: read-out: GI
[43] = system: SK-MEL-2; assay: Growth inhibition of human SK-MEL-2 cells at 10 uM relative to control; format: functional; conditions: read-out: GI
[44] = system: RXF 393; assay: Growth inhibition of human RXF 393 cells at 10 uM relative to control; format: functional; conditions: read-out: GI
[45] = system: HL-60(TB); assay: Growth inhibition of human HL-60(TB) cells at 10 uM relative to control; format: functional; conditions: read-out: GI
[46] = system: Hs-578T; assay: Growth inhibition of human Hs-578T cells at 10 uM relative to control; format: functional; conditions: read-out: GI
[47] = system: A498; assay: Growth inhibition of human A498 cells at 10 uM relative to control; format: functional; conditions: read-out: GI
[48] = system: HCT-116; assay: Growth inhibition of human HCT-116 cells at 10 uM relative to control; format: functional; conditions: read-out: GI
[49] = system: COLO 205; assay: Growth inhibition of human COLO 205 cells at 10 uM relative to control; format: functional; conditions: read-out: GI
[50] = system: SR; assay: Growth inhibition of human SR cells at 10 uM relative to control; format: functional; conditions: read-out: GI
[51] = system: OVCAR-4; assay: Growth inhibition of human OVCAR-4 cells at 10 uM relative to control; format: functional; conditions: read-out: GI
[52] = system: LOX IMVI; assay: Growth inhibition of human LOX IMVI cells at 10 uM relative to control; format: functional; conditions: read-out: GI
[53] = system: NCI-H23; assay: Growth inhibition of human NCI-H23 cells at 10 uM relative to control; format: functional; conditions: read-out: GI
[54] = system: MOLT-4; assay: Growth inhibition of human MOLT-4 cells at 10 uM relative to control; format: functional; conditions: read-out: GI
[55] = system: SK-MEL-28; assay: Growth inhibition of human SK-MEL-28 cells at 10 uM relative to control; format: functional; conditions: read-out: GI
[56] = system: NCI-H522; assay: Growth inhibition of human NCI-H522 cells at 10 uM relative to control; format: functional; conditions: read-out: GI
[57] = system: 786-0; assay: Growth inhibition of human 786-0 cells at 10 uM relative to control; format: functional; conditions: read-out: GI
[58] = system: Malme-3M; assay: Growth inhibition of human Malme-3M cells at 10 uM relative to control; format: functional; conditions: read-out: GI
[59] = system: NCI-H226; assay: Growth inhibition of human NCI-H226 cells at 10 uM relative to control; format: functional; conditions: read-out: GI

Compound `COc1cc(/C=C/C2=CC(c3cc(OC)c(OC)c(OC)c3)N3C(C)=CSC3=N2)cc(OC)c1OC` (centres undefined) has an inhibition of growth at 10 µM [1] of under 10%, an inhibition of growth at 10 µM [2] of under 10% and an inhibition of growth at 10 µM [3] of 12.5%. For the same compound, the inhibition of growth at 10 µM [4] was under 10%, the inhibition of growth at 10 µM [5] was under 10% and the inhibition of growth at 10 µM [6] was under 10%. It also gave an inhibition of growth at 10 µM [7] of under 10%, an inhibition of growth at 10 µM [8] of under 10% and an inhibition of growth at 10 µM [9] of under 10%. It also gave an inhibition of growth at 10 µM [10] of under 10%, an inhibition of growth at 10 µM [11] of under 10% and an inhibition of growth at 10 µM [12] of under 10%. It also gave an inhibition of growth at 10 µM [13] of under 10%, an inhibition of growth at 10 µM [14] of under 10% and an inhibition of growth at 10 µM [15] of under 10%. For the same compound, the inhibition of growth at 10 µM [16] was under 10%, the inhibition of growth at 10 µM [17] was under 10% and the inhibition of growth at 10 µM [18] was under 10%. For the same compound, the inhibition of growth at 10 µM [19] was under 10%, the inhibition of growth at 10 µM [20] was under 10% and the inhibition of growth at 10 µM [21] was under 10%. It also gave an inhibition of growth at 10 µM [22] of under 10%, an inhibition of growth at 10 µM [23] of under 10% and an inhibition of growth at 10 µM [24] of under 10%. The inhibition of growth at 10 µM [25] was under 10%, the inhibition of growth at 10 µM [26] was under 10% and the inhibition of growth at 10 µM [27] was under 10%. The inhibition of growth at 10 µM [28] was under 10%, the inhibition of growth at 10 µM [29] was under 10% and the inhibition of growth at 10 µM [30] was under 10%. For the same compound, the inhibition of growth at 10 µM [31] was under 10%, the inhibition of growth at 10 µM [32] was under 10% and the inhibition of growth at 10 µM [33] was under 10%. For the same compound, the inhibition of growth at 10 µM [34] was under 10%, the IC50 [35] was 91.48 µg/mL (≈ 179 µM) and the inhibition of growth at 10 µM [36] was under 10%. The inhibition of growth at 10 µM [37] was under 10%, the inhibition of growth at 10 µM [38] was under 10% and the inhibition of growth at 10 µM [39] was under 10%. For the same compound, the inhibition of growth at 10 µM [40] was under 10%, the inhibition of growth at 10 µM [41] was under 10% and the inhibition of growth at 10 µM [42] was under 10%. For the same compound, the inhibition of growth at 10 µM [43] was under 10%, the inhibition of growth at 10 µM [44] was under 10% and the inhibition of growth at 10 µM [45] was under 10%. It also gave an inhibition of growth at 10 µM [46] of under 10%, an inhibition of growth at 10 µM [47] of under 10% and an inhibition of growth at 10 µM [48] of under 10%. It also gave an inhibition of growth at 10 µM [49] of under 10%, an inhibition of growth at 10 µM [50] of under 10% and an inhibition of growth at 10 µM [51] of under 10%. The inhibition of growth at 10 µM [52] was under 10%, the inhibition of growth at 10 µM [53] was under 10% and the inhibition of growth at 10 µM [54] was under 10%. For the same compound, the inhibition of growth at 10 µM [55] was under 10%, the inhibition of growth at 10 µM [56] was 14.5% and the inhibition of growth at 10 µM [57] was under 10%. For the same compound, the inhibition of growth at 10 µM [58] was under 10% and the inhibition of growth at 10 µM [59] was under 10%.
